{"source": "patent US7923448B2", "about": "“Purine receptor inhibition as a therapeutic strategy in spinal cord and brain” (priority 2003, dated 2011)", "key": {"non-injured spinal cord": {"test_system": "non-injured spinal cord", "assay": "Injection of ATP or ATP analogs into the non-injured spinal cord, TUNEL staining", "assay_type": "in vivo, rat", "conditions": "10 mM, 2 μl injected just lateral to the dorsal horn, 24 hrs later", "description": "(§1) Adult female Spague-Dawley rats (220-250 g) were anesthetized with pentobarbital (50 mg/kg i.p.). When unresponsive, a double level laminectomy was performed at the T11 and T12 vertebrae. […] The tip of the rod was reduced to 1 mm to avoid direct traumatic injury of the dorsal venous complex. ATP and agonists (10 mM, 2 μl) were stereotaxically injected into T12 just lateral to the dorsal horn. All agents were purchased from Sigma.\nThe rats were anesthetized with ketamine (60 mg/kg) and xylazine (10 mg/kg). After 12 hours post-fixation, the spinal cord is cryoprotected in 30% sucrose and cut in serial 20 μm para-saggital sections. Myelin was visualized with Luxol fast blue (Basso et al., “A Sensitive and Reliable Locomotor Rating Scale for Open Field Testing in Rats,” J Neurotrauma 12:1-21 (1995) and Nedergaard et al., “Characterization of Cortical Depolarization Evoked in Focal Cerebral Ischemia,” J Cereb Blood Flow Metab 13:568-574 (1993), which are hereby incorporated by reference in their entirety)). Immunohistochemistry and TUNEL staining were performed as described in (Lin et al., “Gap-Junction-Mediated Propagation and Amplification of Cell Injury,” Nat Neurosci 1:494-500 (1998); Lin et al., “Connexin Mediates Gap Junction-Independent Resistance to Cellular Injury,” J Neurosci 23:430-441 (2003); and Takano et al., “Glutamate Release Promotes Growth of Malignant Glioma,” Nat Med 7:1010-1015 (2001), which are hereby incorporated by reference in their entirety)). Immunofluorescence was visualized using confocal microscopy (BioRad MRC1024) and images analyzed by Metamorph software (Universal Imaging Corp.).\nIt was then determined whether increased extracellular ATP in itself, in the non-injured spinal cord, was sufficient for induction of cell death. ATP or ATP analogs, all in a concentration of 10 mM (2 μl), were injected into the spinal cord just lateral to the dorsal horn. A large number of TUNEL-positive cells were present 24 hrs later in both gray and white matter (FIG. 2F). […] These observations indicate that raising extracellular ATP concentration is sufficient for induction of cell death in the non-injured spinal cord. In this regard, P2X7 receptors are expressed by most immune cells and their activation leads to multiple downstream events, including cell permeabilization and apoptosis (Chow et al., “Purines and Their Roles in Apoptosis,” Neuropharmacology 36:1149-1156 (1997) and Di Virgilio et al., “Cytolytic P2X Purinoceptors,” Cell Death Differ 5:191-199 (1998), which are hereby incorporated by reference in their entirety))."}, "P2X7 receptors [1]": {"target": "T1, P2X7 receptors (Rattus norvegicus, UniProt Q64663)", "T1 sequence (Q64663 1-595)": "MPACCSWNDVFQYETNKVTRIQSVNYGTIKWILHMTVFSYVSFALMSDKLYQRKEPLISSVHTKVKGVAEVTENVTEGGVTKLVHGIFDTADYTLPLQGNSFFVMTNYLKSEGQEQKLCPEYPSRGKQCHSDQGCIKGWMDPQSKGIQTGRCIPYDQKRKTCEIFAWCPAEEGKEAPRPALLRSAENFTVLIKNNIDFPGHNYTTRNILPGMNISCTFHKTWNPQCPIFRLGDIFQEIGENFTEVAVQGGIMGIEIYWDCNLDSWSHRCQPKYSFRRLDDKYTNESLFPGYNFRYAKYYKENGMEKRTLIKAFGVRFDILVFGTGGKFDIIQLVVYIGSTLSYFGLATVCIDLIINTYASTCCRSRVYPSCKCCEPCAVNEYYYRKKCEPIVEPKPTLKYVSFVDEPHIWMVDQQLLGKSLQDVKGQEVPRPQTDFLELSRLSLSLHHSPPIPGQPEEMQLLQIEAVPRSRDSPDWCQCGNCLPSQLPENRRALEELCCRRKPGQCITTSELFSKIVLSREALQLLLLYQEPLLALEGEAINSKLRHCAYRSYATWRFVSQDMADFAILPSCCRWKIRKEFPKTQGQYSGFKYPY", "assay": "Two-photon calcium imaging (fluo-4) of neurons in spinal cord slices", "conditions": "100 μM; for cytosolic calcium concentration (fluo-4 emission) during bath application: 20 min agonist exposure, spinal cord slices"}, "P2X7 receptors [2]": {"target": "T1, P2X7 receptors", "assay": "Current clamp recording of spiking in spinal cord neurons (slices)", "conditions": "for spiking (action potential firing) of spinal cord neurons: 100 μM, current clamp; for effect on BzATP-induced increase in spike rate (FIG. 4 legend): BzATP 100 μM, OxATP 100 μM, NBQX 10 μM and CPP 5 μM applied combined"}, "spinal cord injury [3]": {"test_system": "spinal cord injury", "assay": "Weight-drop spinal cord injury, BBB open field locomotor rating scale", "assay_type": "in vivo, rat", "conditions": "1 mM, 2 μl local pretreatment; n=14", "description": "as §1\nThe animals were evaluated daily for 2 weeks after injury and later on a biweekly basis.\nIt was next determined whether OxATP protected against cell death in the area of high ATP release following spinal cord injury. OxATP (1 mM, 2 μl) was injected locally into the peri-traumatic zone immediately prior to impact. […] The BBB open field locomotor rating scale was used to evaluate recovery of rats receiving OxATP versus vehicle treated control."}, "spinal cord injury [4]": {"test_system": "spinal cord injury", "assay": "Weight-drop spinal cord injury, TUNEL-positive cells surrounding the lesion", "assay_type": "in vivo, rat", "conditions": "1 mM, 2 μl injected locally into the peri-traumatic zone immediately prior to impact; 24 hrs", "description": "as §1\nThe rats were anesthetized with ketamine (60 mg/kg) and xylazine (10 mg/kg). After 12 hours post-fixation, the spinal cord is cryoprotected in 30% sucrose and cut in serial 20 μm para-saggital sections. Myelin was visualized with Luxol fast blue (Basso et al., “A Sensitive and Reliable Locomotor Rating Scale for Open Field Testing in Rats,” J Neurotrauma 12:1-21 (1995) and Nedergaard et al., “Characterization of Cortical Depolarization Evoked in Focal Cerebral Ischemia,” J Cereb Blood Flow Metab 13:568-574 (1993), which are hereby incorporated by reference in their entirety)). […] Immunofluorescence was visualized using confocal microscopy (BioRad MRC1024) and images analyzed by Metamorph software (Universal Imaging Corp.).\nIt was next determined whether OxATP protected against cell death in the area of high ATP release following spinal cord injury. […]"}}, "note": "“Also recorded” adds a separate entry of the source.", "data": [{"molecule": "CSc1nc(N)c2ncn([C@@H]3O[C@H](COP(=O)(O)OP(=O)(O)OP(=O)(O)O)[C@@H](O)[C@H]3O)c2n1", "note": "[2MeSATP]", "values": [{"measurement": "apoptosis (TUNEL-positive cells) after injection into spinal cord", "setting": "non-injured spinal cord", "result": "not associated with significant injury"}]}, {"molecule": "Nc1ncnc2c1ncn2[C@@H]1O[C@H](COP(=O)(O)OP(=O)(O)OP(=O)(O)O)[C@@H](O)[C@H]1O", "note": "[ATP]", "values": [{"measurement": "cytosolic calcium concentration (fluo-4 emission) during bath application", "setting": "P2X7 receptors [1]", "result": "sustained increase in cytosolic calcium concentration"}, {"measurement": "spiking (action potential firing) of spinal cord neurons", "setting": "P2X7 receptors [2]", "result": "increase spiking rate; also recorded: induced high frequency spiking"}, {"measurement": "apoptosis (TUNEL-positive cells) after injection into spinal cord", "setting": "non-injured spinal cord", "result": "induced a significant extent of apoptosis"}]}, {"molecule": "Nc1ncnc2c1ncn2[C@@H]1O[C@H](COP(=O)(O)OP(=O)(O)OP(O)(O)=S)[C@@H](O)[C@H]1O", "note": "[ATPγS]", "values": [{"measurement": "apoptosis (TUNEL-positive cells) after injection into spinal cord", "setting": "non-injured spinal cord", "result": "highest extent of apoptosis"}]}, {"molecule": "O=C(O)C1CN(CCCP(=O)(O)O)CCN1", "note": "(stereo not shown) [CPP]", "values": [{"measurement": "effect on BzATP-induced increase in spike rate (FIG. 4 legend)", "setting": "P2X7 receptors [2]", "result": "no significant effect"}]}, {"molecule": "Nc1ncnc2c1ncn2[C@@H](C=O)O[C@@H](C=O)COP(=O)(O)OP(=O)(O)OP(=O)(O)O", "note": "[OxATP, oxidized ATP]", "values": [{"measurement": "BBB score difference versus vehicle, first week of recovery", "setting": "spinal cord injury [3]", "result": "2-4 points"}, {"measurement": "functional recovery (BBB) versus vehicle-treated controls", "setting": "spinal cord injury [3]", "result": "significant improved recovery"}, {"measurement": "effect on BzATP-induced increase in spike rate (FIG. 4 legend)", "setting": "P2X7 receptors [2]", "result": "prevented BzATP-induced increase in spike rate"}, {"measurement": "effect on agonist-increased spiking activity", "setting": "P2X7 receptors [2]; pretreatment, OxATP 300 μM, ATP or BzATP 100 μM", "result": "attenuated"}, {"measurement": "number of TUNEL positive cells surrounding the lesion versus vehicle controls", "setting": "spinal cord injury [4]", "result": "highly significant reduction"}]}, {"molecule": "Nc1ncnc2c1ncn2[C@@H]1O[C@H](COP(=O)(O)CP(=O)(O)OP(=O)(O)O)[C@@H](O)[C@H]1O", "note": "[αβATP]", "values": [{"measurement": "apoptosis (TUNEL-positive cells) after injection into spinal cord", "setting": "non-injured spinal cord", "result": "not associated with significant injury"}]}, {"molecule": "BzATP", "values": [{"measurement": "cytosolic calcium concentration (fluo-4 emission) during bath application", "setting": "P2X7 receptors [1]", "result": "sustained increase in cytosolic calcium concentration"}, {"measurement": "calcium elevation after washout", "setting": "P2X7 receptors [1]; 20 min exposure followed by 20 min washout", "result": "failed to recover after washout"}, {"measurement": "spiking (action potential firing) of spinal cord neurons", "setting": "P2X7 receptors [2]", "result": "increase spiking rate; also recorded: induced high frequency spiking"}, {"measurement": "spiking rate versus BzATP dose", "setting": "P2X7 receptors [2]; n=5-9", "result": "increases in a dose-dependent manner"}, {"measurement": "Kd", "setting": "P2X7 receptors [2]; read-out: kd (affinity, spiking response), spinal cord neurons", "result": 23.8, "unit": "µM"}, {"measurement": "apoptosis (TUNEL-positive cells) after injection into spinal cord", "setting": "non-injured spinal cord", "result": "induced apoptosis with a potency equivalent to ATP"}]}, {"molecule": "NBQX", "values": [{"measurement": "effect on BzATP-induced increase in spike rate (FIG. 4 legend)", "setting": "P2X7 receptors [2]", "result": "no significant effect"}]}]}
